# Measured values taken from publication PMC9250534, “Synthesis and direct assay of large macrocycle diversities by combinatorial late-stage modification at picomole scale” (Nature Communications, 2022).
# Numbered stars: 1 amine (or outer) side, 2 acyl side, 3 side chain; on linkers, the order of the positions; unused ones are H or OH. Bridge positions count the residues as written; N and C are the ends. Square brackets hold non-standard residues; d marks the D form. Peptide text beside a SMILES is read from it. * marks the point of attachment. ξ: configuration not given here. ξPro(4-NHCO(5-Cl-2-thienyl)) = O=C(NC1CNC(C(=O)O)C1)c1ccc(Cl)s1; X11 = O=C(c1cccc(S(F)(F)(F)(F)F)c1)*; 2Thenoyl(5-Cl) = O=C(c1ccc(Cl)s1)*; Benzoyl(4-Cl) = O=C(c1ccc(Cl)cc1)*; Cysteamide = C(CS[*:3])N[*:1]; X1 = O=C(/C=C/c1ccccc1)*; Api = NC1(C(=O)O)CCNCC1; Dap = NC[CH](N)C(=O)O; Mpa = O=C(O)CCS
# Target: MDM2 (Homo sapiens, UniProt Q00987)
# Sequence (Q00987 whole entry): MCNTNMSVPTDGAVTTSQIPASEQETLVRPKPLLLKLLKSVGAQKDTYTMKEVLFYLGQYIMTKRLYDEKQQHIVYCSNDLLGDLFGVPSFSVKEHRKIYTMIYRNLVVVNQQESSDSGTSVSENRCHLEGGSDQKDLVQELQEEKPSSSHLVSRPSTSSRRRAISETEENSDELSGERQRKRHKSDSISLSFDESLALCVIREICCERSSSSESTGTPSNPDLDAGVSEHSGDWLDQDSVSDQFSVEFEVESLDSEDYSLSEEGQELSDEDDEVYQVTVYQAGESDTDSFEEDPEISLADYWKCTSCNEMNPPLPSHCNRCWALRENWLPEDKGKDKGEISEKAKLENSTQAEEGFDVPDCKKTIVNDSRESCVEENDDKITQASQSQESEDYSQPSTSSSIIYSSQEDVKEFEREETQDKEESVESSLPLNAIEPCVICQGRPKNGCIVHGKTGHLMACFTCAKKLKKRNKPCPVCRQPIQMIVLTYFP
# Assay: MDM2 binding screen: displacement of fluorescent p53 peptide probe FP53 (fluorescence polarization)
# Conditions: for fraction fluorescent probe displaced, Screen: initial screen; for fraction fluorescent probe displaced, Screen / fraction fluorescent probe displaced, Replicate: crude macrocycle reactions; for fraction fluorescent probe displaced: 10 µM macrocycle concentration, crude acylated macrocycle (scaffold Mpa-AA1-AA2-AA3 x carboxylic acid), p53-based fluorescent peptide, human MDM2
# In short: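 Macrocycle reaction products at a final 10 µM were tested for displacement of a p53-based fluorescent peptide from human MDM2. Fluorescence anisotropy (ex 485/em 535 nm) was read once per macrocycle at 25 °C.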
structure (smiles),measurement,setting,value
O=C(NC[C@@H]1NC(=O)[C@H](Cc2ccccc2)NC(=O)[C@@H]2CCCN2C(=O)CCSSCCNC1=O)c1ccc(Cl)s1 [X B1 F D3 Acid 14] ([Mpa]PF[Dap](2Thenoyl(5-Cl))-Cysteamide; disulfide 1-C),"fraction fluorescent probe displaced, Screen",Acid 14,0.08
same,"fraction fluorescent probe displaced, Replicate",Acid 14,0.10
O=C1CCSSCCNC(=O)[C@@H]2CCCN2C(=O)[C@H](CNC(=O)c2ccc(Cl)s2)NC(=O)[C@H](Cc2ccccc2)N1 [X F D3 B1 Acid 14] ([Mpa]F[Dap](2Thenoyl(5-Cl))P-Cysteamide; disulfide 1-C),"fraction fluorescent probe displaced, Screen",Acid 14,0.08
same,"fraction fluorescent probe displaced, Replicate",Acid 14,0.10
O=C(/C=C/c1ccccc1)NC[C@@H]1NC(=O)[C@H](Cc2ccccc2)NC(=O)CCSSCCNC(=O)[C@H]2CCCN(C2)C1=O [X F D3 B4 Acid 91],"fraction fluorescent probe displaced, Screen",Acid 91,0.11
same,"fraction fluorescent probe displaced, Replicate",Acid 91,-0.0333
O=C1CCNC(=O)[C@H](Cc2c[nH]c3ccccc23)NC(=O)C2(CCN(C(=O)/C=C/c3ccccc3)CC2)NC(=O)CCSSCCN1 [X D6 W B2 Acid 91],"fraction fluorescent probe displaced, Screen",Acid 91,0.14
same,"fraction fluorescent probe displaced, Replicate",Acid 91,0.07
O=C1CCSSCCNC(=O)C(Cc2ccccc2)NC(=O)C2CCCN2C(=O)C2(CCN(C(=O)c3ccc(Cl)s3)CC2)N1 (centres unmarked) [X D6 B1 F Acid 14] ([Mpa][Api](2Thenoyl(5-Cl))PF-Cysteamide; disulfide 1-C; configuration not given here),"fraction fluorescent probe displaced, Screen",Acid 14,-0.00483
same,"fraction fluorescent probe displaced, Replicate",Acid 14,0.0465
O=C(/C=C/c1ccccc1)NC[C@@H]1NC(=O)[C@@H]2CCCN2C(=O)CCSSCCNC(=O)[C@H](Cc2c[nH]c3ccccc23)NC1=O [X-B1-D3-W + A91] ([Mpa]P[Dap](X1)W-Cysteamide; disulfide 1-C),fraction fluorescent probe displaced,,0.1099
O=C(NC[C@@H]1NC(=O)[C@@H]2CCCN2C(=O)CCSSCCNC(=O)[C@H](Cc2c[nH]c3ccccc23)NC1=O)c1cccc(S(F)(F)(F)(F)F)c1 [X-B1-D3-W + A19] ([Mpa]P[Dap](X11)W-Cysteamide; disulfide 1-C),fraction fluorescent probe displaced,,0.1429
O=C1CCSSCCNC(=O)[C@H](CNC(=O)c2ccc(Cl)cc2)NC(=O)[C@H](Cc2ccccc2)NC(=O)c2cccc(c2)CN1 [X B5 F D3 Acid 25],"fraction fluorescent probe displaced, Screen",Acid 25,0.09
same,"fraction fluorescent probe displaced, Replicate",Acid 25,0.0465
O=C1CCSSCCNC(=O)C2CCCN2C(=O)C2CN(C(=O)C=Cc3ccccc3)CCN2C(=O)C(Cc2ccccc2)N1 (mixture of isomers) [X F D7 B1 Acid 91],"fraction fluorescent probe displaced, Screen",Acid 91,-0.0241
same,"fraction fluorescent probe displaced, Replicate",Acid 91,-0.06
O=C1CCSSCCNC(=O)C2CN(C(=O)c3ccc(Cl)cc3)CCN2C(=O)c2cccc(c2)CNC(=O)C(Cc2c[nH]c3ccccc23)N1 (centres unmarked) [X W B5 D7 Acid 25],"fraction fluorescent probe displaced, Screen",Acid 25,0.0244
same,"fraction fluorescent probe displaced, Replicate",Acid 25,0.12
O=C(C=Cc1ccccc1)NCC1NC(=O)CCSSCCNC(=O)C(Cc2c[nH]c3ccccc23)NC(=O)C2CCCN(C2)C1=O (centres unmarked) [X D3 B4 W Acid 91],"fraction fluorescent probe displaced, Screen",Acid 91,0.11
same,"fraction fluorescent probe displaced, Replicate",Acid 91,0.09
O=C(/C=C/c1ccccc1)N[C@H]1C[C@H]2C(=O)N[C@@H](Cc3c[nH]c4ccccc34)C(=O)NCc3cccc(c3)C(=O)NCCSSCCC(=O)N2C1 [X D5 W B5 Acid 91],"fraction fluorescent probe displaced, Screen",Acid 91,-0.05
same,"fraction fluorescent probe displaced, Replicate",Acid 91,0.0168
O=C1NCCSSCCC(=O)N2C[C@@H](NC(=O)c3ccc(Cl)cc3)C[C@H]2C(=O)N[C@@H](Cc2ccccc2)C(=O)NCc2cccc1c2 [X D5 F B5 Acid 25],"fraction fluorescent probe displaced, Screen",Acid 25,0.0569
same,"fraction fluorescent probe displaced, Replicate",Acid 25,0.0465
O=C1CCSSCCNC(=O)[C@H](CNC(=O)c2ccc(Cl)s2)NC(=O)c2cccc(c2)CNC(=O)[C@H](Cc2c[nH]c3ccccc23)N1 [X W B5 D3 Acid 14],"fraction fluorescent probe displaced, Screen",Acid 14,0.20
same,"fraction fluorescent probe displaced, Replicate",Acid 14,0.30
O=C1CCSSCCNC(=O)[C@H](CNC(=O)c2ccc(Cl)cc2)NC(=O)c2cccc(c2)CNC(=O)[C@H](Cc2c[nH]c3ccccc23)N1 [X W B5 D3 Acid 25],"fraction fluorescent probe displaced, Screen",Acid 25,0.41
same,"fraction fluorescent probe displaced, Replicate",Acid 25,0.22
O=C1NCCSSCCC(=O)N2CCCC(C2)C(=O)N2CCN(C(=O)c3ccc(Cl)cc3)CC2C(=O)NC1Cc1c[nH]c2ccccc12 (centres unmarked) [X B4 D7 W Acid 25],"fraction fluorescent probe displaced, Screen",Acid 25,0.32
same,"fraction fluorescent probe displaced, Replicate",Acid 25,0.17
O=C(NC1CC2C(=O)NCCSSCCC(=O)N3CCCC3C(=O)NC(Cc3ccccc3)C(=O)N2C1)c1ccc(Cl)s1 (centres unmarked) [X B1 F D5 Acid 14] ([Mpa]PF[ξPro(4-NHCO(5-Cl-2-thienyl))]-Cysteamide; disulfide 1-C; configuration not given here),"fraction fluorescent probe displaced, Screen",Acid 14,0.11
same,"fraction fluorescent probe displaced, Replicate",Acid 14,0.07
O=C1NCCSSCCC(=O)N2CCN(C(=O)C=Cc3ccccc3)CC2C(=O)NC(Cc2ccccc2)C(=O)NCc2cccc1c2 (centres unmarked) [X D7 F B5 Acid 91],"fraction fluorescent probe displaced, Screen",Acid 91,0.0563
same,"fraction fluorescent probe displaced, Replicate",Acid 91,0.04
O=C1CCSSCCNC(=O)C2CCCN(C2)C(=O)C2CN(C(=O)c3ccc(Cl)s3)CCN2C(=O)C(Cc2ccccc2)N1 (centres unmarked) [X F D7 B4 Acid 14],"fraction fluorescent probe displaced, Screen",Acid 14,-0.00483
same,"fraction fluorescent probe displaced, Replicate",Acid 14,0.12
O=C1NC2(CCN(C(=O)/C=C/c3ccccc3)CC2)C(=O)N[C@@H](Cc2c[nH]c3ccccc23)C(=O)NCCSSCCC(=O)N2CCC[C@H]1C2 [X B4 D6 W Acid 91],"fraction fluorescent probe displaced, Screen",Acid 91,0.16
same,"fraction fluorescent probe displaced, Replicate",Acid 91,0.09
O=C(NC[C@@H]1NC(=O)[C@H](Cc2ccccc2)NC(=O)[C@H]2CCCN(C2)C(=O)CCSSCCNC1=O)c1ccc(Cl)s1 [X B4 F D3 Acid 14],"fraction fluorescent probe displaced, Screen",Acid 14,0.08
same,"fraction fluorescent probe displaced, Replicate",Acid 14,0.10
O=C1NCCSSCCC(=O)N2CCN(C(=O)C=Cc3ccccc3)CC2C(=O)NC(Cc2c[nH]c3ccccc23)C(=O)N2CCCC1C2 (centres unmarked) [X D7 W B4 Acid 91],"fraction fluorescent probe displaced, Screen",Acid 91,0.03
same,"fraction fluorescent probe displaced, Replicate",Acid 91,0.04
O=C1CCSSCCNC(=O)C2(CCN(C(=O)c3ccc(Cl)cc3)CC2)NC(=O)C2CCCN(C2)C(=O)C(Cc2ccccc2)N1 (centres unmarked) [X F B4 D6 Acid 25],"fraction fluorescent probe displaced, Screen",Acid 25,0.15
same,"fraction fluorescent probe displaced, Replicate",Acid 25,0.07
O=C1CCSSCCNC(=O)[C@@H]2CCCN2C(=O)[C@H](Cc2c[nH]c3ccccc23)NC(=O)C2(CCN(C(=O)c3ccc(Cl)cc3)CC2)N1 [X D6 W B1 Acid 25] ([Mpa][Api](Benzoyl(4-Cl))WP-Cysteamide; disulfide 1-C),"fraction fluorescent probe displaced, Screen",Acid 25,0.25
same,"fraction fluorescent probe displaced, Replicate",Acid 25,0.20
O=C(NCC1NC(=O)C(Cc2c[nH]c3ccccc23)NC(=O)C2CCCN2C(=O)CCSSCCNC1=O)c1ccc(Cl)s1 (centres unmarked) [X B1 W D3 Acid 14] ([Mpa]PW[Dap](2Thenoyl(5-Cl))-Cysteamide; disulfide 1-C; configuration not given here),"fraction fluorescent probe displaced, Screen",Acid 14,0.23
same,"fraction fluorescent probe displaced, Replicate",Acid 14,0.15
O=C1CCNC(=O)C2(CCN(C(=O)c3ccc(Cl)cc3)CC2)NC(=O)CCSSCCNC(=O)[C@H](Cc2ccccc2)N1 [X D6 B2 F Acid 25],"fraction fluorescent probe displaced, Screen",Acid 25,0.0244
same,"fraction fluorescent probe displaced, Replicate",Acid 25,0.0211
O=C(NC1CC2C(=O)NC(Cc3ccccc3)C(=O)N3CCCC(C3)C(=O)NCCSSCCC(=O)N2C1)c1ccc(Cl)cc1 (centres unmarked) [X D5 F B4 Acid 25],"fraction fluorescent probe displaced, Screen",Acid 25,0.0244
same,"fraction fluorescent probe displaced, Replicate",Acid 25,0.0211
O=C1CCSSCCNC(=O)[C@H](Cc2c[nH]c3ccccc23)NC(=O)[C@H](CNC(=O)c2ccc(Cl)cc2)NC(=O)CCN1 [X B2 D3 W Acid 25],"fraction fluorescent probe displaced, Screen",Acid 25,0.19
same,"fraction fluorescent probe displaced, Replicate",Acid 25,0.22
O=C1CCSSCCNC(=O)[C@H](Cc2c[nH]c3ccccc23)NC(=O)[C@@H]2CCCN2C(=O)[C@H](CNC(=O)c2ccc(Cl)s2)N1 [X D3 B1 W Acid 14] ([Mpa][Dap](2Thenoyl(5-Cl))PW-Cysteamide; disulfide 1-C),"fraction fluorescent probe displaced, Screen",Acid 14,0.17
same,"fraction fluorescent probe displaced, Replicate",Acid 14,0.10
O=C(/C=C/c1ccccc1)NC[C@@H]1NC(=O)CCSSCCNC(=O)CCNC(=O)[C@H](Cc2c[nH]c3ccccc23)NC1=O [X D3 W B2 Acid 91],"fraction fluorescent probe displaced, Screen",Acid 91,0.19
same,"fraction fluorescent probe displaced, Replicate",Acid 91,0.0168
O=C1CCSSCCNC(=O)[C@@H]2CCCN2C(=O)[C@H](CNC(=O)c2ccc(Cl)cc2)NC(=O)[C@H](Cc2ccccc2)N1 [X F D3 B1 Acid 25] ([Mpa]F[Dap](Benzoyl(4-Cl))P-Cysteamide; disulfide 1-C),"fraction fluorescent probe displaced, Screen",Acid 25,0.0569
same,"fraction fluorescent probe displaced, Replicate",Acid 25,0.15
O=C1CCSSCCNC(=O)[C@H]2CCCN(C2)C(=O)[C@H](CNC(=O)c2ccc(Cl)cc2)NC(=O)[C@H](Cc2ccccc2)N1 [X F D3 B4 Acid 25],"fraction fluorescent probe displaced, Screen",Acid 25,0.12
same,"fraction fluorescent probe displaced, Replicate",Acid 25,0.10
O=C(NCC1NC(=O)C2CCCN2C(=O)CCSSCCNC(=O)C(Cc2c[nH]c3ccccc23)NC1=O)c1ccc(Cl)cc1 (centres unmarked) [X B1 D3 W Acid 25] ([Mpa]P[Dap](Benzoyl(4-Cl))W-Cysteamide; disulfide 1-C; configuration not given here),"fraction fluorescent probe displaced, Screen",Acid 25,0.22
same,"fraction fluorescent probe displaced, Replicate",Acid 25,0.20
O=C1CCSSCCNC(=O)C2(CCN(C(=O)c3ccc(Cl)s3)CC2)NC(=O)[C@@H]2CCCN2C(=O)[C@H](Cc2c[nH]c3ccccc23)N1 [X W B1 D6 Acid 14] ([Mpa]WP[Api](2Thenoyl(5-Cl))-Cysteamide; disulfide 1-C),"fraction fluorescent probe displaced, Screen",Acid 14,0.08
same,"fraction fluorescent probe displaced, Replicate",Acid 14,-0.00432
O=C1NC(Cc2ccccc2)C(=O)NCCSSCCC(=O)N2CCN(C(=O)c3ccc(Cl)cc3)CC2C(=O)NCc2cccc1c2 (centres unmarked) [X D7 B5 F Acid 25],"fraction fluorescent probe displaced, Screen",Acid 25,-0.04
same,"fraction fluorescent probe displaced, Replicate",Acid 25,0.12
